# Laboratory results as given in patent publication US20260258048A1, “LACTAM-CONTAINING IMIDAZOPYRIDAZINE IL-17 INHIBITOR COMPOUNDS” (Janssen Pharmaceutica NV, priority 2023, published 2026).
# What was measured:
# [1] = target: IL-17A(FLAG-tagged): IL-17RA(His-tagged) (Homo sapiens, UniProt Q16552, K93Q); assay: IL-17A(FLAG-tagged): IL-17RA(His-tagged) binding disruption Eu-HTRF assay; conditions: class of the average IC50 where tested more than once
# Text: IL-17A(FLAG-tagged): IL-17RA(His-tagged) binding disruption Eu-HTRF assay An antibody directed against the FLAG tag of IL-17A (SEQ ID NO: 1) is labeled with the HTRF donor chromophore (Europium-cryptate). IL-17A is present as a dimer that is “locked into” this quaternary structure due to the formation of loop-spanning intramolecular disulfide bridges. The construct of IL-17RA used in the assay excludes the […] portion of the receptor and is fused to a C-terminal 10×His tag (SEQ ID NO:2). An antibody directed against the His tag of the IL-17RA chimera is labeled with the HTRF acceptor chromophore (“D2”). The fluorescence-resonance energy transfer (FRET) depends on the vicinity of the donor chromophore to the acceptor, and interruption of the binding between the IL-17A and IL-17RA causes the reduction/loss of FRET. Therefore, this assay allows to evaluate the compound effect on the binding IL-17A and IL-17RA by monitoring the fluorescence intensity of donor vs acceptor. The assay is run as described below.
# 40 nl of 2-fold serial diluted compound solution for total 22 dilution points is added into each well of a 1536-well, white, low-volume, non-binding plate (Greiner #782904), then 2 μl of FLAG tagged IL-17A at 2× final concentration (1 μM) in solution of PBS+0.01% Triton-X100 is added to each well. The assay plate is briefly centrifuged then incubated for 1 h at rt. A mixed solution is prepared containing 2×5 nM 10HIS×IL-17RA, 2×2.5 nM Eu-anti-FLAG (CISBIO), 2×5 nM D2-anti-HIS (CISBIO) in PBS+0.01% Triton-X100+200 mM Potassium Fluoride (Sigma 60238) and 2 μl of mix is added to each well of the assay plate. The plate is briefly centrifuged then incubated for 2 h at rt. The HTRF intensities at the wavelength of donor (615 nm) and acceptor (665 nm) are measured using BMG Pherastar. The ratio between intensities at two wavelengths is calculated and plotted against the compound concentration and the data is fitted to a one-site competition model to yield IC50 of the compound.
# [2] = system: IL-17A-induced G-CSF production in human normal keratinocyte (NHK); assay: NHK assay: IL-17A-induced G-CSF production in normal human keratinocytes; assay type: cell-based; conditions: Homo sapiens, Keratinocyte, 24 h, IL-17A 5 ng/mL, class of the average IC50 where tested more than once
# Protocol: IL-17A acts directly on keratinocytes through binding to dimeric receptor IL-17RA/RC and drives the production of a number of inflammatory mediators known to be elevated in psoriasis lesional tissue. IL-17A small molecule inhibitors that block the IL-17A to interact with IL-17R would inhibit the IL-17A signaling in its targeted cells such as keratinocytes. The compound functional activity is evaluated for its impact on IL-17A-induced G-CSF production in human normal keratinocyte (NHK).
# Adult normal human keratinocytes are cultured in keratinocyte growth medium (Lonza) in a flask till reaching ~90% confluence, then cells are transferred to a 384-well plate at density of 3000-4000 cell/well. Recombinant human IL-17A (Gibco PHC9174) is pre-incubated with titrated compound or DMSO for 1 h at rt then added to the cell culture plate. The final concentration of IL-17A is 5 ng/mL and DMSO is 0.2%, in the culture containing 5% FBS. Cells are cultured/treated for 24 h at 37° C. Supernatants are collected and G-CSF production is measured through HTRF technology using Human G-CSF Kit (CisBio). G-CSF concentration was extrapolated from the standard curve and IC50 is determined using GraphPad Prism. Cell viability is also evaluated using CellTiter-Glo kit (Promega) and effect of compound on cell viability is compared to DMSO control.
# Chain of UniProt Q16552 (Q16552 with tags, fused parts or gaps K93Q): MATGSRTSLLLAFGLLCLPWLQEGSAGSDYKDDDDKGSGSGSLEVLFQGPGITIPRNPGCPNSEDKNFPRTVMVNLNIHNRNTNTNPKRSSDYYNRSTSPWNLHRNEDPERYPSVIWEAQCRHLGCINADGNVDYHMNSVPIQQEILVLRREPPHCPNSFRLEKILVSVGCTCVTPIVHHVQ
IC50 [1] [nM],Structure (SMILES),IC50 [2] [nM]
400 to 4000,"O=C(N[C@H](c1cn2ncc([C@H](O)[C@H]3C[C@H](C(F)(F)F)NC3=O)cc2n1)C1CCC(F)(F)CC1)c1nonc1C1CC1 (relative stereo) [Example 63, 4-Cyclopropyl-N—((S)-(4,4-difluorocyclohexyl)(7-((R*)-hydroxy((3R*,5R*)-2-oxo-5-(trifluoromethyl)pyrrolidin-3-yl)methyl)imidazo[1,2-b]pyridazin-2-yl)methyl)-1,2,5-oxadiazole-3-carboxamide]",> 4000
400 to 4000,"O=C(N[C@H](c1cn2ncc([C@H](O)[C@@H]3C[C@H](C(F)(F)F)NC3=O)cc2n1)C1CCC(F)(F)CC1)c1nonc1C1CC1 (relative stereo) [Example 64, 4-Cyclopropyl-N—((S)-(4,4-difluorocyclohexyl)(7-((R*)-hydroxy((3S*,5R*)-2-oxo-5-(trifluoromethyl)pyrrolidin-3-yl)methyl)imidazo[1,2-b]pyridazin-2-yl)methyl)-1,2,5-oxadiazole-3-carboxamide]",< 400
< 400,"CC(C)(CC[C@H](NC(=O)c1nonc1C1CC1)c1cn2ncc([C@H](O)[C@H]3C[C@@H](C(F)(F)F)NC3=O)cc2n1)C(F)(F)F (relative stereo) [Example 65, 4-Cyclopropyl-N—((S)-5,5,5-trifluoro-1-(7-((R*)-hydroxy((3R*,5S)-2-oxo-5-(trifluoromethyl)pyrrolidin-3-yl)methyl)imidazo[1,2-b]pyridazin-2-yl)-4,4-dimethylpentyl)-1,2,5-oxadiazole-3-carboxamide]",< 400
400 to 4000,"O=C(N[C@H](c1cn2ncc(C[C@@H]3C[C@H](C(F)(F)F)NC3=O)cc2n1)C1CCC(F)(F)CC1)c1nonc1C1CC1 (relative stereo) [Example 68, 4-Cyclopropyl-N—((S)-(4,4-difluorocyclohexyl)(7-(((3R*,5R*)-2-oxo-5-(trifluoromethyl)pyrrolidin-3-yl)methyl)imidazo[1,2-b]pyridazin-2-yl)methyl)-1,2,5-oxadiazole-3-carboxamide]",400 to 4000
400 to 4000,"O=C(N[C@H](c1cn2ncc(C[C@H]3C[C@H](C(F)(F)F)NC3=O)cc2n1)C1CCC(F)(F)CC1)c1nonc1C1CC1 (relative stereo) [Example 69, 4-Cyclopropyl-N—((S)-(4,4-difluorocyclohexyl)(7-(((3S*,5R*)-2-oxo-5-(trifluoromethyl)pyrrolidin-3-yl)methyl)imidazo[1,2-b]pyridazin-2-yl)methyl)-1,2,5-oxadiazole-3-carboxamide]",400 to 4000
< 400,"O=C(N[C@H](c1cn2ncc(C[C@@H]3C[C@@H](C(F)(F)F)NC3=O)cc2n1)C1CCC(F)(F)CC1)c1nonc1C1CC1 (relative stereo) [Example 70, 4-Cyclopropyl-N—((S)-(4,4-difluorocyclohexyl)(7-(((3R*,5S*)-2-oxo-5-(trifluoromethyl)pyrrolidin-3-yl)methyl)imidazo[1,2-b]pyridazin-2-yl)methyl)-1,2,5-oxadiazole-3-carboxamide]",< 400
400 to 4000,"O=C(N[C@H](c1cn2ncc(C[C@H]3C[C@@H](C(F)(F)F)NC3=O)cc2n1)C1CCC(F)(F)CC1)c1nonc1C1CC1 (relative stereo) [Example 71, 4-Cyclopropyl-N—((S)-(4,4-difluorocyclohexyl)(7-(((3S*,5S*)-2-oxo-5-(trifluoromethyl)pyrrolidin-3-yl)methyl)imidazo[1,2-b]pyridazin-2-yl)methyl)-1,2,5-oxadiazole-3-carboxamide]",> 4000
400 to 4000,"O=C(N[C@H](c1cn2ncc([C@@H](O)[C@@H]3C[C@@H](C(F)(F)F)NC3=O)cc2n1)C1CCC(F)(F)CC1)c1nonc1C1CC1 (relative stereo) [Example 72, 4-Cyclopropyl-N—((S)-(4,4-difluorocyclohexyl(7-((S*)-hydroxy((3S*,5S*)-2-oxo-5-(trifluoromethyl)pyrrolidin-3-yl)methyl)imidazo[1,2-b]pyridazin-2-yl)methyl)-1,2,5-oxadiazole-3-carboxamide]",400 to 4000
400 to 4000,O=C(N[C@H](c1cn2ncc([C@@H](O)[C@H]3C[C@@H](C(F)(F)F)NC3=O)cc2n1)C1CCC(F)(F)CC1)c1nonc1C1CC1 (relative stereo) [Example 73],400 to 4000
< 400,"O=C(N[C@H](c1cn2ncc([C@H](O)[C@@H]3C[C@@H](C(F)(F)F)NC3=O)cc2n1)C1CCC(F)(F)CC1)c1nonc1C1CC1 (relative stereo) [Example 75, 4-Cyclopropyl-N—((S)-(4,4-difluorocyclohexyl)(7-((R*)-hydroxy((3S*,5S*)-2-oxo-5-(trifluoromethyl)pyrrolidin-3-yl)methyl)imidazo[1,2-b]pyridazin-2-yl)methyl)-1,2,5-oxadiazole-3-carboxamide]",< 400
> 4000,"O=C(N[C@H](c1cn2ncc([C@H](O)[C@H]3C[C@@H](C(F)(F)F)NC3=O)cc2n1)C1CCC(F)(F)CC1)c1nonc1C1CC1 (relative stereo) [Example 77, 4-Cyclopropyl-N—((S)-(4,4-difluorocyclohexyl)(7-((R*)-hydroxy((3R*,5S*)-2-oxo-5-(trifluoromethyl)pyrrolidin-3-yl)methyl)imidazo[1,2-b]pyridazin-2-yl)methyl)-1,2,5-oxadiazole-3-carboxamide]",400 to 4000
> 4000,"C[C@@H](c1cnn2cc([C@@H](NC(=O)c3nonc3C3CC3)C3CCC(F)(F)CC3)nc2c1)[C@H]1C[C@@H](C(F)(F)F)NC1=O (relative stereo) [Example 78, 4-Cyclopropyl-N—((S)-(4,4-difluorocyclohexyl)(7-((R*)-1-((3R*,5S)-2-oxo-5-(trifluoromethyl)pyrrolidin-3-yl)ethyl)imidazo[1,2-b]pyridazin-2-yl)methyl)-1,2,5-oxadiazole-3-carboxamide]",> 4000
< 400,"C[C@H](c1cnn2cc([C@@H](NC(=O)c3nonc3C3CC3)C3CCC(F)(F)CC3)nc2c1)[C@H]1C[C@@H](C(F)(F)F)NC1=O (relative stereo) [Example 79, 4-Cyclopropyl-N—((S)-(4,4-difluorocyclohexyl)(7-((S*)—1-((3R*,5S)-2-oxo-5-(trifluoromethyl)pyrrolidin-3-yl)ethyl)imidazo[1,2-b]pyridazin-2-yl)methyl)-1,2,5-oxadiazole-3-carboxamide]",< 400
< 400,"C[C@H](c1cnn2cc([C@@H](NC(=O)c3nonc3C3CC3)C3CCC(F)(F)CC3)nc2c1)[C@@H]1C[C@@H](C(F)(F)F)NC1=O (relative stereo) [Example 81, 4-Cyclopropyl-N—((S)-(4,4-difluorocyclohexyl)(7-((S*)-1-((3S*,5S)-2-oxo-5-(trifluoromethyl)pyrrolidin-3-yl)ethyl)imidazo[1,2-b]pyridazin-2-yl)methyl)-1,2,5-oxadiazole-3-carboxamide]",< 400
400 to 4000,"C[C@H]1C[C@@H](Cc2cnn3cc([C@@H](NC(=O)c4nonc4C4CC4)C4CCC(F)(F)CC4)nc3c2)C(=O)N1 (relative stereo) [Example 82, 4-Cyclopropyl-N—((S)-(4,4-difluorocyclohexyl)(7-(((3R*,5S*)-5-methyl-2-oxopyrrolidin-3-yl)methyl)imidazo[1,2-b]pyridazin-2-yl)methyl)-1,2,5-oxadiazole-3-carboxamide]",> 4000
